Test [1] concerns PC12 cells. Nature of the test: KCN-induced necrosis of PC12 cells, LDH release. It is filed as cell-based, rat. The following applies: Rattus norvegicus, PC-12, 5 h, KCN, PC12, LDH release (Table 5). The procedure, abridged:
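PC12 cells held 1 h in glucose-free DMEM with 2 mM pyruvate and 10% dialyzed FCS, given compounds in DMSO (0.1% final) 30 min before KCN, then exposed 5 h. Necrosis read as LDH released to medium as % of total (0.1% Triton X-100 lysate), A490; protection from LDH release with vs without inhibitor.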

The subject of test [2] is Balb/c mice, myocardial ischemia/reperfusion. Nature of the test: Myocardial ischemia/reperfusion in mice. The note with it: 30 mg/kg IV 20 min before ischemia and at reperfusion; 30 min ischemia, 6 h reperfusion. The test is classed as in vivo, mouse. How it is done:
Male Balb/c mice (20-25 g; Charles River; Milan; Italy) were housed in a controlled environment and provided with standard rodent chow and water.
Mice were subjected to 30 minutes of myocardial ischemia and 6 hours of reperfusion, using published methodologies (Yet et al, 2001). Study groups consisted of sham, vehicle control, and inhibitor (n=8/group, see below). Briefly, mice were anesthetized with pentobarbital sodium (60 mg/kg body weight) with additional doses given as needed to maintain anesthesia. Mice were intubated and mechanically ventilated with 100% oxygen. Mice received a first IV dose of the active inhibitor 1-(2-(4-methylpiperazin-1-yl)-4,5-dihydro-1H-imidazol-1-yl)propan-1-one (M059-0891) (30 mg/kg) and their chest was opened. […] The area of necrosis, as a % of AAR was quantified. […]
After the reperfusion period, 1 mL/kg of a 4% thioflavin S solution is injected IV in order to delineate the no-reflow area. […] The areas of ischemic and nonischemic regions are computed and expressed as a percentage of the slice, as are the % of necrotic and non-necrotic tissue. […] AAR (unstained blue area) is expressed as a percentage of the LV mass. The extent of necrosis is calculated as a percentage of the LV mass, and the infarct size expressed as a percentage of the AAR (infarct size=extent of necrosis/extent of AAR).

In the case of `CCC(=O)N1CCN=C1N1CCN(C)CC1` [M059-0891, 1-(2-(4-methylpiperazin-1-yl)-4,5-dihydro-1H-imidazol-1-yl)propan-1-one], in test [1] (0.1 nM, read-out: % protection at 0.1 nM), the inhibition at 0.0001 µM was 25%. In addition, the inhibition at 0.001 µM in test [1] (1 nM, read-out: % protection at 1 nM) is 36%. For the same compound, in test [1] (10 nM, read-out: % protection At 10 nM), the inhibition at 0.01 µM came out at 55%. For the same compound, the inhibition at 0.1 µM in test [1] (0.1 μM, read-out: % protection at 0.1 μM) stood at 84%. Further, the inhibition at 1 µM in test [1] (1 μM, read-out: % protection at 1 μM) came out at 85%. For the same compound, the “necrosis and infarct size” value in test [2] is “significant reduction”.

Values taken from patent publication US11945787B2, “Substituted imidazoles for preventing and/or treating cell or tissue necrosis” (Ela Pharma Ltd, priority 2015, dated 2024).
